Test results taken from PMC5046085, “Systemic Inhibition of CREB is Well-tolerated in vivo” (Scientific Reports, 2016).

Experiments:
[1] = In vivo pharmacokinetics, plasma concentration by LC-MS/MS; settings: female, mouse, single dose 10 mg/kg IP, C57BL/6 mice, read-out: plasma concentration 24 h after drug administration
Description: Then the blood was collected at different time points and the plasma drug concentration was measured using tandem mass spectroscopy coupled with liquid chromatography (LC/MS-MS) methods.
Blood was collected at 0.083, 0.25, 0.5, 1, 2, 4, 8, 24 h post drug administration. Blood was collected from each mouse from the submandibular vein (3 time points/mouse). The blood was collected into the EDTA-K2 tubes, and centrifuged at 4,000× rpm for 10 min at 4 °C. The plasma was removed and stored at −80 °C until further analysis. The quantitative LC-MS/MS analyses were conducted using an Agilent 1200 HPLC system coupled to an API 4000 mass spectrometer equipped with an API electrospray ionization (ESI) source. The mobile phases used are a linear gradient of mobile phase A (10 mM ammonium acetate in H2O) and mobile phase B (10 mM ammonium acetate in 90% MeOH). The column used was Xtimate C18 2.1 × 30 mm (3 μm) with a flow rate of 0.6 mL/min. The mass spectrometer was operated in ESI positive ion mode and detection of the drugs was performed by multiple reaction monitoring (MRM).

Gal4-c-Myb(241–325) = molecular target: T1, Gal4-c-Myb(241–325) (Homo sapiens, UniProt P10242); assay: Gal4-c-Myb transcription reporter assay in HEK293T cells; assay type: cell-based; settings: pG5B reporter, increasing concentrations, 5–7 h
T1 construct: Gal4-c-Myb (241–325) was a generous gift of Dr. Anders Näär; expressed in transfected cells; host or cells: HEK293T
Description: (§1) In these transcription reporter assays, HEK293T cells were transfected with Gal4-fusions along with a Gal4-responsive luciferase reporter or SRF-responsive luciferase (SRE-Luc) reporter. For Gal4-TEAD4, coactivator YAP1 was also included for transfection to enhance its transcription activity. Then the cells were treated with increasing concentrations of 666-15. […] (Fig. 2D).
(§2) Figure 2 Selectivity of 666-15 against different transcription factors. […] HEK 293T cells were transfected with Gal4-MLL/pG5B (A) Gal4-c-Myb/pG5B (B) Gal4-TEAD4/YAP1/pG5B (C) or SRE-Luc (D). Then the transfected cells were treated with increasing concentrations of 666-15 for 5–7 h. The luciferase activity was then measured, normalized to the protein content and expressed as relative luciferase unit (RLuc)/μg protein.
(§3) 666-15 was described before. […]
(§4) HEK293T cells (ATCC) were routinely cultured in Dulbecco’s modified Eagle medium (DMEM, Life Technologies) supplemented with 10% fetal bovine serum (Hyclone) and non-essential amino acids (Life Technologies). […] The luciferase activity was measured by a tube luminometer (Berthold) using luciferase assay reagent (Promega). The protein concentration of the cell lysates in each well was determined using a Protein Assay Dye Reagent (Biorad). The luciferase activity in each well was normalized to the protein content and expressed as RLuc (relative luciferase unit)/μg protein.

Gal4-MLL(2840–2858) = system: T2, Gal4-MLL(2840–2858); assay: Gal4-MLL transcription reporter assay in HEK293T cells; assay type: cell-based, human; settings: pG5B reporter, increasing concentrations, 5–7 h
T2 construct: human MLL (2840–2858) ([…]); expressed in transfected cells; host or cells: HEK293T
Description: as §1, §2, §3, §4

c-Myb = system: c-Myb; parameters: method as in PMID 15585582, PMID 25740244; settings: cited from earlier work

T2 sequence (P04386 with tags, fused parts or gaps): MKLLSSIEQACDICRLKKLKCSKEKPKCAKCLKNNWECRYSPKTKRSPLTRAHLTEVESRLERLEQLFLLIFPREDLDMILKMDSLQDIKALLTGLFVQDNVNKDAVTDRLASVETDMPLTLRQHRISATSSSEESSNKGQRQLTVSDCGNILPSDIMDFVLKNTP
T1 sequence (P10242 with tags, fused parts or gaps limits assumed): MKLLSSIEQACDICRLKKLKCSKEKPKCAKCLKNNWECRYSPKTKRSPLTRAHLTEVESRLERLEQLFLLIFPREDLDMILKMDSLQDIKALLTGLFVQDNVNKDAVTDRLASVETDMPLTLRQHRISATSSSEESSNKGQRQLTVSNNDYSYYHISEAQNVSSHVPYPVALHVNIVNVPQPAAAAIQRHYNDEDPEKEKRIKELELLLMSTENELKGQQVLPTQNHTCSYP

concentration at 24 h [1] [nM] | inhibition of Gal4-c-Myb-mediated transcription (Gal4-c-Myb(241–325)) | inhibition of Gal4-MLL-mediated transcription (Gal4-MLL(2840–2858)) | SMILES | effect on c-Myb's activity (c-Myb)
50 to 100 | no inhibition | no inhibition | NCCCOc1cc2ccccc2cc1C(=O)NCCOc1cc2ccccc2cc1C(=O)Nc1ccc(Cl)cc1O [666-15] | 
 |  |  | O=C(Nc1ccc(Cl)cc1)c1cc2ccccc2cc1OP(=O)(O)O [naphthol AS-E phosphate] | inhibits c-Myb’s activity
